Measurements reported in patent US4843087A (priority 1986, dated 1989).
In brackets after ≈: the same amount, converted by molar mass.

Experiments:
[1] = system: Polio 2; experiment: microbe, parasite or virus in culture; type: cell-based, poliovirus; details: Enterovirus C, HeLa, read-out: Polio 2 MIC
[2] = system: human rhinovirus (HRV) serotypes; experiment: microbe, parasite or virus in culture; type: cell-based; details: for MIC50: read-out: Rhinovirus MIC50; for IC (MIC80 of serotype panel): read-out: Rhinovirus MIC80

Compound | MIC [1] [µg/mL] | MIC50 [2] [µg/mL] | IC (MIC80 of serotype panel) [2] [µg/mL]
Cc1cc(CCC#CCOc2c(Cl)cc(C3=NCCO3)cc2Cl)on1 [Example 151, 5-{5-[2,6-Dichloro-4-(4,5-dihydro-2-oxazolyl)phenoxy]-3-pentynyl}-3-methylisoxazole] | 0.4 (≈ 1.05 µM) | 0.2 (≈ 0.527 µM) | 1.2
Cc1cc(CCCCCOc2ccc(C3=NCCCO3)cc2)on1 [Example 95, 5,6-Dihydro-2-{4-[5-(3-methyl-5-isoxazolyl)pentyloxy]phenyl}-4H-1,3-oxazine] | 0.15 (≈ 0.457 µM) | 1.65 (≈ 5.02 µM) | 26.3
CN(C)Cc1cc(CCCCCCCOc2ccc(C3=NCCO3)cc2)on1 [Example 136(b), 5-{7-[4-(4,5-Dihydro-2-oxazolyl)phenoxy]heptyl}-3-(dimethylaminomethyl)isoxazole] | 0.62 (≈ 1.61 µM) | 0.88 (≈ 2.28 µM) | 1.47
Cc1cc(CCCCCOc2ccc(C3=NCCO3)c(C)c2)on1 [Example 51, 5-{5-[4-(4,5-Dihydro-2oxazolyl)-3-methylphenoxy]pentyl}-3-methylisoxazole] | 0.045 (≈ 0.137 µM) | 0.56 (≈ 1.71 µM) | 1.6
Cc1cc(CCCCCOc2c(Cl)cc(C3=NCC(C)O3)cc2Cl)on1 (stereo not drawn) [Example 108, 5-{5-[2,6-Dichloro-4-(4,5-dihydro-5-methyl-2-oxazolyl)phenoxy]pentyl}-3-methylisoxazole] | 2.6 (≈ 6.54 µM) | 0.13 (≈ 0.327 µM) | 0.34
Cc1cc(CCCCCCOc2ccc(C3=NCCO3)cc2Cl)on1 [Example 16, 5-{-[26-Chloro-4-(4,5-dihydro-2-oxazolyl)phenoxy]hexyl}-3-methylisoxazole] | 0.13 (≈ 0.358 µM) | 0.08 (≈ 0.22 µM) | 0.43
Cc1cc(CCCCCOc2ccc(C3=NCCO3)c(C)c2C)on1 [Example 79, 5-{5-[4-(4,5-Dihydro-2-oxazolyl)-2,3-dimethylphenoxy]pentyl}-3-methylisoxazole] | 2.3 (≈ 6.72 µM) | 0.3 (≈ 0.876 µM) | 0.7
Cc1cc(COCCCCCOc2ccc(C3=NCCO3)cc2)on1 [Example 99, 5-{[[5-[4-(4,5-Dihydro-2-oxazolyl)phenoxy]pentyl]oxy]methyl}-3-methylisoxazole] | 0.27 (≈ 0.784 µM) | 1.3 (≈ 3.77 µM) | 2.3
Cc1cc(CCCCCOc2ccc(C3=NCCO3)cc2C)on1 [Example 46, 5-{5-[4-(4,5-Dihydro-2-oxazolyl)-2-methylphenoxy]pentyl}-3-methylisoxazole] | 0.1 (≈ 0.304 µM) | 0.09 (≈ 0.274 µM) | 0.2
Cc1cc(CCCOCOCCOc2ccc(C3=NCCO3)cc2C)on1 [Example 83, 5-{3-[[2-[4-(4,5-Dihydro-2-oxazolyl)-2-methylphenoxy]ethoxy]methoxy]propyl}-3-methylisoxazole] | 5 (≈ 13.4 µM) | 3.75 (≈ 10 µM) | 99
COCc1cc(CCCCCOc2c(Cl)cc(C3=NCCO3)cc2Cl)on1 [Example 117, 5-{5-[2,6-Dichloro-4-(4,5-dihydro-2-oxazolyl)phenoxy]pentyl}-3-(methoxymethyl)isoxazole] | 0.39 (≈ 0.944 µM) | 0.09 (≈ 0.218 µM) | 0.31
Cc1noc(CCCCCCCOc2ccc(C3=NCCO3)cc2)c1CCl [Example 35, 4-Chloromethyl-5-{7-[4-(4,5-dihydro-2-oxazolyl)phenoxy]heptyl}-3-methylisoxazole] | 0.05 (≈ 0.128 µM) | 1.39 (≈ 3.54 µM) | 1.8
Cc1cc(CCCCCOc2ccc(C3=NCCO3)cc2C=CBr)on1 [Example 147, 5-{5-[2-(2-Bromoethenyl)-4-(4,5-dihydro-2-oxazolyl)phenoxy]pentyl}-3-methylisoxazole] | 0.4 (≈ 0.954 µM) | 0.23 (≈ 0.549 µM) | 0.76
Cc1cc(CCCCCCCOc2ccc(C3=NCCO3)cc2Br)on1 [Example 45, 5-{7-[2-Bromo-4(4,5-dihydro-2-oxazolyl)phenoxy]heptyl}-3-methylisoxazole] | 0.5 (≈ 1.19 µM) | 0.16 (≈ 0.38 µM) | 0.7
Cc1cc(CCCOCOCCOc2ccc(C3=NCCO3)cc2Cl)on1 [Example 82, 5-{3-[[2-[2-Chloro-4-(4,5-dihydro-2-oxazolyl)phenoxy]ethoxy]methoxy]propyl}-3-methylisoxazole] | 2.9 (≈ 7.34 µM) | 1.2 (≈ 3.04 µM) | 5.4
Cc1cc(CCCCCOc2ccc(-c3nc(C)c(C)o3)cc2C)on1 [Example 90, 5-{5-[4-(4,5-Dimethyl-2-oxazolyl)-2-methylphenoxy]pentyl}-3-methylisoxazole] | 1.5 (≈ 4.23 µM) | 0.2 (≈ 0.564 µM) | 0.49
CCOC(=O)c1cc(C2=NCCO2)ccc1OCCCCCc1cc(C)no1 [Example 146, 5-{5-[2-Ethoxycarbonyl-4-(4,5-dihydro-2-oxazolyl)phenoxy]pentyl}-3-methylisoxazole] | 4.2 (≈ 10.9 µM) | 0.29 (≈ 0.75 µM) | 0.55
Cc1cc(CCCCCOc2ccc(C3=NCCO3)c(O)c2)on1 [Example 52, 5-{5-[4-(4,5-Dihydro-2-oxazolyl)-3-hydroxyphenoxy]pentyl}-3-methylisoxazole] | 0.003 (≈ 0.00908 µM) | 0.084 (≈ 0.254 µM) | 1.9

Compound | MIC [1] [µg/mL] | MIC50 [2] [µg/mL] | IC (MIC80 of serotype panel) [2] [µg/mL]
Cc1cc(CCCCOc2ccc(C3=NC(C)CO3)cc2)on1 (stereo not drawn) [Example 64, 5-{4-[4-(4,5-Dihydro-4-methyl-2-oxazoly)phenoxy]butyl}-3-methylisoxazole] | 2.4 (≈ 7.63 µM) | 0.485 (≈ 1.54 µM) | 25.6
Cc1cc(CCCCCOc2ccc(-c3nc(C)c(C)o3)cc2)on1 [89(d), 5-{5-[4-(4,5-Dimethyl-2-oxazolyl)phenoxy]pentyl}-3-methylisoxazole] | 0.16 (≈ 0.47 µM) | 0.19 (≈ 0.558 µM) | 0.77
Cc1cc(CCCCCCCOc2ccc(C3=NCCO3)cc2C)on1 [31(b), 5-{7-[4-(4,5-Dihydro-2-oxazolyl)-2-methylphenoxy]heptyl}-3-methylisoxazole] | 0.36 (≈ 1.01 µM) | 0.15 (≈ 0.421 µM) | 0.56
Cc1cc(CCCCCOc2c(Cl)cc(C3=NCCO3)cc2[N+](=O)[O-])on1 [153(d), 5-{5-[2-Chloro-4-(4,5-dihydro-2-oxazolyl)-6-nitrophenoxy]pentyl}-3-methylisoxazole] | 0.4 (≈ 1.02 µM) | 0.09 (≈ 0.229 µM) | 0.18
Cc1cc(CCCCCOc2ccc(-c3ncc(Cl)o3)cc2)on1 [Example 145, 5-{5-[4-(5-Chloro-2-oxazolyl)phenoxy]pentyl}-3-methylisoxazole] | 0.033 (≈ 0.0952 µM) | 0.2 (≈ 0.577 µM) | 0.29
Cc1cc(CCCCCCOc2ccc(C3=NCCO3)cc2)on1 [14(b), 5-{6-[4-(4,5-Dihydro-2-oxazolyl)phenoxy]hexyl}-3-methylisoxazole] | 0.017 (≈ 0.0518 µM) | 0.8 (≈ 2.44 µM) | 25.5
CCc1cc(C(=O)NCCCl)cc(C)c1OCCCCCc1cc(C)no1 [157(c), N-(2-Chloroethyl)-3-ethyl-5-methyl-4-{[5-(3-methyl-5-isoxazolyl)pentyl]oxy}benzamide] | 2.1 (≈ 5.34 µM) | 0.49 (≈ 1.25 µM) | 1.2
Cc1cc(CCCCCOc2ccc(C3=NC(C)(C)CO3)cc2)on1 [Example 62, 5-{5-[4-(4,5-Dihydro-4,4-dimethyl-2-oxazolyl)phenoxy]pentyl}-3-methylisoxazole] | 0.51 (≈ 1.49 µM) | 1.5 (≈ 4.38 µM) | 2.4
Cc1cc(CCCCCOc2c(Cl)cc(C3=NCCO3)cc2Br)on1 [152(d), 5-{5-[2-Bromo-6-chloro-4-(4,5-dihydro-2-oxazolyl)phenoxy]pentyl}-3-methylisoxazole] | 0.97 (≈ 2.27 µM) | 0.095 (≈ 0.222 µM) | 0.23
Cc1cc(CCCCCOc2ccc(C3=NCCO3)c(Cl)c2)on1 [Example 47, 5-{5-[3-Chloro-4-(4,5-dihydro-2-oxazolyl)phenoxy]pentyl}-3-methylisoxazole] | 0.02 (≈ 0.0573 µM) | 0.36 (≈ 1.03 µM) | 2.4
Cc1cc(CCCCCOc2ccc(-c3nc(C)co3)cc2)on1 [Example 133, 5-{5-[4-(4-Methyl-2-oxazolyl)phenoxy]pentyl}-3-methylisoxazole] | 0.09 (≈ 0.276 µM) | 0.16 (≈ 0.49 µM) | 0.68
Cc1cc(CCCCCCCOc2ccc(-c3nc(C)co3)cc2)on1 [Example 135, 5-{7-[4-(4-Methyl-2-oxazolyl)phenoxy]heptyl}-3-methylisoxazole] | 2.6 (≈ 7.34 µM) | 0.335 (≈ 0.945 µM) | 0.6
Cc1cc(CCCCCOc2ccc(C3=NC(C)CO3)cc2)on1 (stereo not drawn) [Example 56, 5-{5-[4-(4,5-Dihydro-4-methyl-2-oxazolyl)phenoxy]pentyl}-3-methylisoxazole] | 0.07 (≈ 0.213 µM) | 0.164 (≈ 0.499 µM) | 25.3
Cc1cc(CCCCCOc2c(Cl)cc(C(=O)NCCCl)cc2Cl)on1 [162(c), 3,5-Dichloro-N-(2-chloroethyl)-4-{[5-(3-methyl-5-isoxazolyl)pentyl]oxy}benzamide] | 0.48 (≈ 1.14 µM) | 0.16 (≈ 0.381 µM) | 0.28
Cc1cc(CCCCCOc2ccc(C3=NCCO3)cc2C(=O)O)on1 [Example 86, 5-{5-[2-Carboxy-4-(4,5-dihydro-2-oxazolyl)phenoxy]pentyl}-3-methylisoxazole] | 2.6 (≈ 7.25 µM) | 99 (≈ 276 µM) | 99
Cc1cc(CCCCCOc2ccc(-c3ncc(C)o3)cc2)on1 [93(f), 3-Methyl-5-{5-[4-(5-methyl-2-oxazolyl)phenoxy]pentyl}-isoxazole] | 0.09 (≈ 0.276 µM) | 0.09 (≈ 0.276 µM) | 1.3
Cc1noc(CCCCCCCOc2ccc(C3=NCCO3)cc2)c1CO [29(b), 5-{7-[4-(4,5-Dihydro-2-oxazolyl)phenoxy]heptyl}-3-methyl-4-isoxazolemethanol] | 0.02 (≈ 0.0537 µM) | 1.25 (≈ 3.34 µM) | 1.7
COc1cc(C2=NCCO2)ccc1OCCCCCc1cc(C)no1 [Example 42, 5-{5-[4-(4,5-Dihydro-2oxazolyl)-2-methoxyphenoxy]pentyl}-3-methylisoxazole] | 0.12 (≈ 0.348 µM) | 0.35 (≈ 1.02 µM) | 0.64
